Source: ChEMBL document CHEMBL3045376, “Pharmacophore modeling and 3D QSAR analysis of isothiazolidinedione derivatives as PTP1B inhibitors” (Med Chem Res, 2013)

Target: T1, Tyrosine-protein phosphatase non-receptor type 1 (Homo sapiens, UniProt P18031)
T1 sequence (P18031 whole entry): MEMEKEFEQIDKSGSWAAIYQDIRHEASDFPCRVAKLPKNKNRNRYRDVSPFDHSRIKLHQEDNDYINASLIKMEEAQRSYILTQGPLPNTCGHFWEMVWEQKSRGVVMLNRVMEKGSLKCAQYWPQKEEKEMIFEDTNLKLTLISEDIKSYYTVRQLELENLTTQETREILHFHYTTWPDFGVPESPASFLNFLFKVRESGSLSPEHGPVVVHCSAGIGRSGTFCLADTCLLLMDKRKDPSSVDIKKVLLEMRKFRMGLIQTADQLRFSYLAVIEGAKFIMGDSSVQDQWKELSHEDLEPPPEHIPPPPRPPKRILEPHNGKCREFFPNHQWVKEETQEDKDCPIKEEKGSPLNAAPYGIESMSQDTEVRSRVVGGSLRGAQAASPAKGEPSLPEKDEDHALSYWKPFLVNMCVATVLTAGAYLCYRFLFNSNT
Test: Inhibition of Homo sapiens (human) PTP1B expressed in Escherichia coli using PNPP as substrate

IC50 [nM] | Structure (SMILES)
661 | CC(=O)N[C@@H](Cc1ccccc1)C(=O)N[C@@H](Cc1ccc(C2CC(=O)NS2(=O)=O)cc1)C(N)=O (stereo partly specified)
340 | NC(=O)[C@H](Cc1ccc(C2CC(=O)NS2(=O)=O)cc1)NC(=O)[C@H](Cc1ccccc1)NC(=O)CCc1ccccc1 (stereo partly specified)
100000 | CC(=O)N[C@@H](Cc1ccc(C2CC(=O)NS2(=O)=O)cc1)C(N)=O (stereo partly specified)
180 | NC(=O)[C@H](Cc1ccc(C2CC(=O)NS2(=O)=O)cc1)NC(=O)[C@H](Cc1ccccc1)NC(=O)Cc1ccccc1 (stereo partly specified)
6000 | CCCCCNC(=O)[C@H](Cc1ccc(C2=CS(=O)(=O)NC2=O)cc1)NC(=O)[C@H](Cc1ccccc1)NC(=O)Cc1ccc(OC)cc1
170 | NC(=O)[C@H](Cc1ccc(C2CC(=O)NS2(=O)=O)cc1)NC(=O)[C@H](Cc1ccccc1)NC(=O)Cc1ccc(C(F)(F)F)cc1 (stereo partly specified)
1400 | NC(=O)[C@H](Cc1ccc(C2=CC(=O)NS2(=O)=O)cc1)NC(=O)[C@H](Cc1ccccc1)NC(=O)Cc1ccc(C(F)(F)F)cc1
1200 | CCCCCNC(=O)[C@H](Cc1ccc(C2=CC(=O)NS2(=O)=O)cc1)NC(=O)[C@H](Cc1ccccc1)NC(=O)Cc1ccc(OC)cc1
170 | NC(=O)[C@H](Cc1ccc(C2CC(=O)NS2(=O)=O)cc1)NC(=O)[C@H](Cc1ccccc1)NC(=O)Cc1ccc(O)cc1 (stereo partly specified)
1500 | CCCCCNC(=O)[C@H](Cc1ccc(N2CC(=O)NS2(=O)=O)cc1)NC(=O)[C@H](Cc1ccccc1)NC(=O)Cc1ccc(OC)cc1
1000 | NC(=O)[C@H](Cc1ccc(C2=CC(=O)NS2(=O)=O)cc1)NC(=O)[C@H](Cc1ccccc1)NC(=O)Cc1ccccc1
2700 | NC(=O)[C@H](Cc1ccc(C2=CC(=O)NS2(=O)=O)cc1)NC(=O)[C@H](Cc1ccccc1)NC(=O)CCc1ccccc1
100000 | NC(=O)[C@H](Cc1ccc(C2CC(=O)NS2(=O)=O)cc1)NC(=O)[C@@H](N)Cc1ccccc1 (stereo partly specified)
791 | NC(=O)[C@H](Cc1ccc(C2=CC(=O)NS2(=O)=O)cc1)NC(=O)[C@H](Cc1ccccc1)NC(=O)Cc1ccc(O)cc1
180 | CC(=O)N[C@@H](Cc1ccccc1)C(=O)N[C@@H](Cc1ccc([C@@H]2CC(=O)NS2(=O)=O)cc1)C(N)=O
1800 | NC(=O)[C@H](Cc1ccc(C2=CC(=O)NS2(=O)=O)cc1)NC(=O)[C@H](Cc1ccccc1)NC(=O)c1ccccc1
100000 | NC(=O)[C@H](Cc1ccc(C2=CC(=O)NS2(=O)=O)cc1)NC(=O)[C@@H](N)Cc1ccccc1
70000 | CC(C)(C)OC(=O)N[C@@H](Cc1ccc(C2CC(=O)NS2(=O)=O)cc1)C(N)=O (stereo partly specified)
100000 | NC(=O)[C@@H](N)Cc1ccc(C2CC(=O)NS2(=O)=O)cc1 (stereo partly specified)
170 | COc1ccc(CC(=O)N[C@@H](Cc2ccccc2)C(=O)N[C@@H](Cc2ccc(C3CC(=O)NS3(=O)=O)cc2)C(N)=O)cc1 (stereo partly specified)
1600 | COc1ccc(CC(=O)N[C@@H](Cc2ccccc2)C(=O)N[C@@H](Cc2ccc(C3=CC(=O)NS3(=O)=O)cc2)C(N)=O)cc1
